Measurements reported in patent publication US9169252B2 (BRISTOL-MYERS SQUIBB COMPANY, priority 2014, dated 2015).
Where two headings read alike, the source gives them in different places.

Columns and labels:
[1] = biological target: IRAK4 (Homo sapiens (Human), UniProt Q9NWZ3); assay: IRAK4 Inhibition Assay; assay type: biochemical; settings: IRAK4 Inhibition Assay; ATP 500 μM; read-out: IRAK4 IC50
How it was run: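 IRAK4 combined with fluorescent substrate and compounds, reacted 60 min at room temperature, stopped with 35 mM EDTA. Substrate and phosphorylated product separated electrophoretically on a Caliper LabChip 3000 mobility-shift reader.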

[2] = system: TLR2 induced IL-6 in peripheral blood mononuclear cells (PBMCs); assay: PBMC TLR2 Induced IL-6 Assay; assay type: cell-based, human; settings: PBMC TLR2 Induced IL-6 Assay, lipoteichoic acid stimulation, IL-6 by ELISA; for EC50: read-out: Cell EC50; for IC50: read-out: Cell IC50
How it was run: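 Lipoteichoic acid at 10 µg/ml served as TLR2 stimulus for 5 hours, following a 30-minute compound pretreatment at 37° C. Cells were Ficoll-isolated human PBMCs, 250000 cells/well, cultured in RPMI plus 10% heat-inactivated FCS.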

Sequence of IRAK4 (Q9NWZ3 whole entry, species assumed): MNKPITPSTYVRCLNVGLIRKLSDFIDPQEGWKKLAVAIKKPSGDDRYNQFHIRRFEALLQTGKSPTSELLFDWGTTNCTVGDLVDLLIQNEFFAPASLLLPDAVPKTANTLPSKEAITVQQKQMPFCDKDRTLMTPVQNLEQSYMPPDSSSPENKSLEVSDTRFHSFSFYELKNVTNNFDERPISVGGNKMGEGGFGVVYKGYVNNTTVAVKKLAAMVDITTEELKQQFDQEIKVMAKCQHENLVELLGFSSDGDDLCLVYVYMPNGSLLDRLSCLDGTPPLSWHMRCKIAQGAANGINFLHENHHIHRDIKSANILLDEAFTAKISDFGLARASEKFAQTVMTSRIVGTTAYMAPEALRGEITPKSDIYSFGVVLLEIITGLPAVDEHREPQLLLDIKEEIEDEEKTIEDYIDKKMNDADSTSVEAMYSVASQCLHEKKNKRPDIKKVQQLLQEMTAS

IC50 [1] | SMILES | EC50 ([2]; Homo sapiens, PBMC) | IC50 ([2]; Homo sapiens, PBMC) | IC50 [2] | EC50 [2]
19.5 nM | CNC(=O)C[C@H]1CC[C@H](NC(=O)c2cnc(-n3ncc4cc(C#N)cnc43)cc2NC(C)C)CC1 [Example 218] | 111 nM | – | – | –
14.9 nM | CC(C)Nc1cc(-n2ncc3cc(C#N)cnc32)ncc1C(=O)NCCNS(C)(=O)=O [Example 219] | 502 nM | 678 nM | – | –
6.5 nM | CC(C)Nc1cc(-n2ncc3cc(C#N)cnc32)ncc1C(=O)NCCC1CCCCO1 (stereo not shown) [Example 220] | 168 nM | – | – | –
8.4 nM | CC(C)Nc1cc(-n2ncc3cc(C#N)cnc32)ncc1C(=O)Nc1ccc(N2CCOCC2)cn1 [Example 221] | 230 nM | – | – | –
5.1 nM | CC(C)Nc1cc(-n2ncc3cc(C#N)cnc32)ncc1C(=O)Nc1ccc(N2CCOCC2)cc1 [Example 222] | 305 nM | – | – | –
4 nM | CC(C)Nc1cc(-n2ncc3cc(C#N)cnc32)ncc1C(=O)Nc1cc2cc[nH]c2cn1 [Example 223] | – | 178 nM | – | –
6.7 nM | CC(C)Nc1cc(-n2ncc3cc(C#N)cnc32)ncc1C(=O)Nc1cnc(N2CCOCC2)nc1 [Example 224] | 303 nM | 159 nM | – | –
9.2 nM | CC(C)Nc1cc(-n2ncc3cc(C#N)cnc32)ncc1C(=O)Nc1ccc(OCCN(C)C)cn1 [Example 225] | 98 nM | – | – | –
6.8 nM | CC(C)Nc1cc(-n2ncc3cc(C#N)cnc32)ncc1C(=O)Nc1ccc(CN2CCOCC2)cc1 [Example 226] | 248 nM | – | – | –
5.3 nM | CC(C)Nc1cc(-n2ncc3cc(C#N)cnc32)ncc1C(=O)Nc1ccc(N2CCNCC2)nc1 [Example 227] | 55 nM | – | – | –
6.9 nM | CC(C)Nc1cc(-n2ncc3cc(C#N)cnc32)ncc1C(=O)Nc1ccc(N(C)C)nc1 [Example 228] | 163 nM | – | – | –
9.6 nM | CNC(=O)[C@H](F)CNC(=O)c1cnc(-n2ncc3cc(C#N)cnc32)cc1NC(C)C [Example 229] | 137 nM | 1420 nM | – | –
13.4 nM | CC(C)Nc1cc(-n2ncc3cc(C#N)cnc32)ncc1C(=O)NC[C@@H](F)C(=O)N[C@@H](C)CO [Example 230] | 410 nM | 459 nM | – | –
14.2 nM | CC(C)Nc1cc(-n2ncc3cc(C(F)F)cnc32)ncc1C(=O)NC[C@@H](F)C(C)(C)O [Example 231] | 237 nM | 544 nM | – | –
4.7 nM | CC(C)(CO)Nc1cc(-n2ncc3cc(C#N)cnc32)ncc1C(=O)NC[C@@H](F)C(C)(C)O [Example 234] | 128 nM | 1360 nM | – | –
6.1 nM | CC(C)Nc1cc(-n2ncc3cc(C#N)cnc32)ncc1C(=O)NCCC1(O)CCOCC1 [Example 235] | 184 nM | – | – | –
11.6 nM | CC(C)Nc1cc(-n2ncc3cc(C#N)cnc32)ncc1C(=O)Nc1ccc(C(C)(C)O)cn1 [Example 236] | 323 nM | – | – | –
6.7 nM | CC(C)Nc1cc(-n2ncc3cc(C#N)cnc32)ncc1C(=O)NCCC1(O)CCOC1 (stereo not shown) [Example 237] | 102 nM | 364 nM | – | –
8.1 nM | CC(O)CCNC(=O)c1cnc(-n2ncc3cc(C#N)cnc32)cc1NC(C)C (stereo not shown) [Example 238] | 357 nM | – | 1810 nM | –

IC50 [1] | SMILES | EC50 ([2]; Homo sapiens, PBMC) | IC50 ([2]; Homo sapiens, PBMC) | IC50 [2] | EC50 [2]
5.3 nM | CC(O)CCNC(=O)c1cnc(-n2ncc3cc(C#N)cnc32)cc1NC(C)C (stereo not shown) [Example 239] | – | – | 775 nM | 211 nM
15.7 nM | CC(C)Nc1cc(-n2ncc3cc(C#N)cnc32)ncc1C(=O)NC1CCN(c2ncccn2)CC1 [Example 240] | 305 nM | – | – | –
7.3 nM | CC(C)Nc1cc(-n2ncc3cc(C#N)cnc32)ncc1C(=O)Nc1ccc(N2CCN(C)CC2)cn1 [Example 241] | 292 nM | – | – | –
5.3 nM | CC(C)Nc1cc(-n2ncc3cc(C#N)cnc32)ncc1C(=O)NCC(F)C1(O)COC1 (stereo not shown) [Example 243] | 298 nM | – | 1990 nM | –
6.3 nM | CC(C)Nc1cc(-n2ncc3cc(C#N)cnc32)ncc1C(=O)N[C@H]1CC[C@H](C(C)(C)O)C1 [Example 244] | 259 nM | – | – | –
15.7 nM | CC(C)Nc1cc(-n2ncc3cc(C#N)cnc32)ncc1C(=O)N[C@@H]1CCCN(S(C)(=O)=O)C1 [Example 245] | 233 nM | – | – | –
19.8 nM | CC(C)Nc1cc(-n2ncc3cc(C#N)cnc32)ncc1C(=O)N[C@H]1CCCN(S(C)(=O)=O)C1 [Example 246] | 353 nM | – | – | –
6.8 nM | COC1CCN(c2ccc(NC(=O)c3cnc(-n4ncc5cc(C#N)cnc54)cc3NC(C)C)cn2)CC1 [Example 247] | 173 nM | – | – | –
3.6 nM | CC(C)Nc1cc(-n2ncc3cc(C#N)cnc32)ncc1C(=O)NCC(F)C1(O)COC1 (stereo not shown) [Example 248] | – | – | 554 nM | –
6.1 nM | CC(C)Nc1cc(-n2ncc3cc(C#N)cnc32)ncc1C(=O)NCC(F)C1(O)COC1 (stereo not shown) [Example 249] | – | – | 355 nM | –
8.3 nM | CC(C)Nc1cc(-n2ncc3cc(C#N)cnc32)ncc1C(=O)NCCC1(O)CCN(C)CC1 [Example 250] | 497 nM | – | – | –
3.1 nM | CC(C)Nc1cc(-n2ncc3cc(C#N)cnc32)ncc1C(=O)NCCc1ccc(S(N)(=O)=O)cc1 [Example 251] | 311 nM | – | – | –
3.6 nM | CC(C)Nc1cc(-n2ncc3cc(C#N)cnc32)ncc1C(=O)NCCC1(O)CCCC1 [Example 252] | – | 197 nM | – | –
8.5 nM | CC(C)Nc1cc(-n2ncc3cc(C#N)cnc32)ncc1C(=O)NCCC1(O)CCN(C2COC2)CC1 [Example 253] | – | 363 nM | – | –
10 nM | COC1CCN(c2ccc(NC(=O)c3cnc(-n4ncc5cc(C#N)cnc54)cc3NC(C)C)nc2)CC1 [Example 254] | – | 496 nM | – | –
7.5 nM | CC(C)Nc1cc(-n2ncc3cc(C#N)cnc32)ncc1C(=O)NCCC1(O)CCNC1 (stereo not shown) [Example 255] | 329 nM | – | – | –
14.7 nM | CC(C)Nc1cc(-n2ncc3cc(C#N)cnc32)ncc1C(=O)NC[C@@H](F)C(=O)N1CCOCC1 [Example 256] | – | 148 nM | – | –
8.9 nM | CC(C)Nc1cc(-n2ncc3cc(C#N)cnc32)ncc1C(=O)NC[C@@H](F)C(=O)N1CCN(S(C)(=O)=O)CC1 [Example 257] | 136 nM | – | – | –
6.3 nM | CC(C)Nc1cc(-n2ncc3cc(Cl)cnc32)ncc1C(=O)NCC(F)C1(O)COC1 (stereo not shown) [Example 258] | – | 42 nM | – | –

IC50 [1] | SMILES | EC50 ([2]; Homo sapiens, PBMC) | IC50 ([2]; Homo sapiens, PBMC) | IC50 [2] | EC50 [2]
2.5 nM | CC(C)Nc1cc(-n2ncc3cc(C#N)cnc32)ncc1C(=O)NCCc1ccncc1 [Example 259] | – | 102 nM | – | –
3.3 nM | CC(C)Nc1cc(-n2ncc3cc(C#N)cnc32)ncc1C(=O)NCCc1ccc(F)cc1 [Example 260] | – | 159 nM | – | –
3.4 nM | COc1ccc(CCNC(=O)c2cnc(-n3ncc4cc(C#N)cnc43)cc2NC(C)C)cc1 [Example 261] | – | 154 nM | – | –
1.3 nM | CC(C)Nc1cc(-n2ncc3cc(C#N)c(N)nc32)ncc1C(=O)NC[C@@H](F)C(C)(C)O [Example 262] | – | 48 nM | – | –
6.5 nM | CC(C)Nc1cc(-n2ncc3cc(C#N)cnc32)ncc1C(=O)NCCC(C)NS(C)(=O)=O (stereo not shown) [Example 264] | – | 338 nM | – | –
2.4 nM | CC(C)Nc1cc(-n2ncc3cc(C#N)cnc32)ncc1C(=O)NCCC(C)NS(C)(=O)=O (stereo not shown) [Example 265] | – | – | 241 nM | –
2.6 nM | CC(C)Nc1cc(-n2ncc3cc(C#N)cnc32)ncc1C(=O)NCCC1CCN(C)CC1 [Example 266] | – | 73 nM | – | –
4.5 nM | CC(C)Nc1cc(-n2ncc3cc(C#N)cnc32)ncc1C(=O)NCc1nc(Cc2ccccc2)no1 [Example 267] | – | 516 nM | – | –
10.6 nM | CC(C)Nc1cc(-n2ncc3cc(C#N)cnc32)ncc1C(=O)Nc1cnn(C2COC2)c1 [Example 268] | – | 171 nM | – | –
3.6 nM | CC(C)Nc1cc(-n2ncc3cc(C#N)cnc32)ncc1C(=O)NCCc1ccc(N(S(C)(=O)=O)S(C)(=O)=O)cc1 [Example 269] | – | 171 nM | – | –
1.6 nM | CC(=O)Nc1ccc(CCNC(=O)c2cnc(-n3ncc4cc(C#N)cnc43)cc2NC(C)C)cc1 [Example 270] | – | 348 nM | – | –
15.9 nM | CC(C)Nc1cc(-n2ncc3cc(C#N)cnc32)ncc1C(=O)Nc1cnn(C2CCOCC2)c1 [Example 271] | – | 176 nM | – | –
5.1 nM | CC(C)Nc1cc(-n2ncc3cc(C#N)cnc32)ncc1C(=O)NC1CCN(S(=O)(=O)C(C)C)CC1 [Example 272] | – | 737 nM | – | –
18.6 nM | CC(C)Nc1cc(-n2ncc3cc(C#N)cnc32)ncc1C(=O)NC1CCN(C(=O)C(C)C)CC1 [Example 273] | – | 94 nM | – | –
8 nM | CC(C)Nc1cc(-n2ncc3cc(C#N)cnc32)ncc1C(=O)NCCC1CCN(C(=O)CC#N)CC1 [Example 275] | – | 115 nM | – | –
4.7 nM | CC(C)Nc1cc(-n2ncc3cc(C#N)cnc32)ncc1C(=O)NCCc1cccnc1 [Example 276] | – | 380 nM | – | –
5.9 nM | CC(C)Nc1cc(-n2ncc3cc(C#N)cnc32)ncc1C(=O)NCCC1(O)CCC(C)(O)CC1 (stereo not shown) [Example 277] | – | 251 nM | – | –
6.5 nM | CC(C)Nc1cc(-n2ncc3cc(C#N)cnc32)ncc1C(=O)NCCC1(O)CCC(F)(F)CC1 [Example 279] | – | 247 nM | – | –
16.9 nM | CC(C)CC(=O)NCc1cnc2c(cnn2-c2cc(NC(C)C)c(C(=O)NC[C@@H](F)C(C)(C)O)cn2)c1 [Example 280] | – | 692 nM | – | –
